Laboratory results from patent US20200085776A1, “Methods of Reducing C-Reactive Protein and/or Treating Cardiovascular Disease” (CARDAX, INC., priority 2018, published 2020).

Key:
[1] = test system: HDL; assay: Fasting lipid panel: HDL, CHASE clinical study; type: in vivo, human; conditions: for HDL V2 to V6 % Change Max / HDL V2 to V6 % Change Mean (SD) / HDL V2 to V6 % Change Median / HDL V2 to V6 % Change Min / HDL V2 to V6 Change Max / HDL V2 to V6 Change Mean (SD) / HDL V2 to V6 Change Median / HDL V2 to V6 Change Min: baseline to Week 12
Description: Blood samples shall be obtained under fasted conditions for a lipid panel at V2, V4, V6, V7, and V8. This panel shall include total cholesterol, LDL-C, VLDL-C, HDL-C, and triglycerides. A minimum eight-hour fast (water allowed) is required for the lipid panel.
Fasting lipid profiles and fasting chemistry panels may be obtained within the visit time window on a day separate from the scheduled office visit, within two days before or after the other study procedures. A minimum of eight hours fasted (water allowed ad lib) is required.
(§1) Table 7M provides the changes in lipid levels (mg/dL) (V2 to V6) for subjects.

[2] = test system: Oxidized LDL; assay: Oxidized LDL, CHASE clinical study; type: in vivo, human; parameters: Oxidized LDL Mean (SD) / Oxidized LDL Median / Oxidized LDL Min / Oxidized LDL Max / Oxidized LDL V2 to V6 Change Median / Oxidized LDL V2 to V6 Change Max: unit not given here; conditions: all subjects; for Oxidized LDL V2 to V6 % Change Max / Oxidized LDL V2 to V6 % Change Mean (SD) / Oxidized LDL V2 to V6 % Change Median / Oxidized LDL V2 to V6 % Change Min / Oxidized LDL V2 to V6 Change Max / Oxidized LDL V2 to V6 Change Mean (SD) / Oxidized LDL V2 to V6 Change Median / Oxidized LDL V2 to V6 Change Min: baseline to Week 12
Description: Samples shall be obtained for TNF-α, IL-1β, IL-6, IFN-γ, and oxLDL at V2, V4, V6, and V8 I.
as §1

[3] = Group X 12 mg BID, V2 baseline pre-dose, all subjects
[4] = Group X 12 mg BID, V2 baseline pre-dose, subjects with hyperlipidemia
[5] = Group X 12 mg BID, V6 Week 12, all subjects
[6] = Group X 12 mg BID, V6 Week 12, subjects with hyperlipidemia
[7] = Group X 12 mg BID, all subjects
[8] = Group X 12 mg BID, subjects with hyperlipidemia
[9] = Group Z 48 mg BID, V2 baseline pre-dose, all subjects
[10] = Group Z 48 mg BID, V2 baseline pre-dose, subjects with hyperlipidemia
[11] = Group Z 48 mg BID, V6 Week 12, all subjects
[12] = Group Z 48 mg BID, V6 Week 12, subjects with hyperlipidemia
[13] = Group Z 48 mg BID, all subjects
[14] = Group Z 48 mg BID, subjects with hyperlipidemia
[15] = Group X 12 mg BID, V2 baseline pre-dose
[16] = Group Z 48 mg BID, V2 baseline pre-dose

CC1=C(/C=C/C(C)=C/C=C/C(C)=C/C=C/C=C(C)/C=C/C=C(C)/C=C/C2=C(C)C(=O)C(O)CC2(C)C)C(C)(C)CC(O)C1=O (stereo not drawn) [Astaxanthin, astaxanthin]
HDL Max [1, 3]: 73.00 mg/dL | HDL Mean (SD) [1, 3]: 46.00 (17.37) mg/dL | HDL Median [1, 3]: 42.00 mg/dL | HDL Min [1, 3]: 24.00 mg/dL | HDL Max [1, 4]: 67.00 mg/dL | HDL Mean (SD) [1, 4]: 45.38 (17.08) mg/dL | HDL Median [1, 4]: 42.50 mg/dL | HDL Min [1, 4]: 24.00 mg/dL | HDL Max [1, 5]: 68.00 mg/dL | HDL Mean (SD) [1, 5]: 45.27 (13.68) mg/dL | HDL Median [1, 5]: 42.00 mg/dL | HDL Min [1, 5]: 29.00 mg/dL | HDL Max [1, 6]: 65.00 mg/dL | HDL Mean (SD) [1, 6]: 44.13 (13.24) mg/dL | HDL Median [1, 6]: 41.00 mg/dL | HDL Min [1, 6]: 29.00 mg/dL | HDL V2 to V6 % Change Max [1, 7]: 24.14% | HDL V2 to V6 % Change Mean (SD) [1, 7]: 1.78 (14.18) % | HDL V2 to V6 % Change Median [1, 7]: −2.99% | HDL V2 to V6 % Change Min [1, 7]: −16.3% | HDL V2 to V6 Change Max [1, 7]: 7.00 mg/dL | HDL V2 to V6 Change Mean (SD) [1, 7]: −0.73 (5.75) mg/dL | HDL V2 to V6 Change Median [1, 7]: -1.00 mg/dL | HDL V2 to V6 Change Min [1, 7]: -9.00 mg/dL | HDL V2 to V6 % Change Max [1, 8]: 24.14% | HDL V2 to V6 % Change Mean (SD) [1, 8]: 0.85 (15.61) % | HDL V2 to V6 % Change Median [1, 8]: −3.06% | HDL V2 to V6 % Change Min [1, 8]: −16.3% | HDL V2 to V6 Change Max [1, 8]: 7.00 mg/dL | HDL V2 to V6 Change Mean (SD) [1, 8]: −1.25 (6.11) mg/dL | HDL V2 to V6 Change Median [1, 8]: -1.50 mg/dL | HDL V2 to V6 Change Min [1, 8]: -9.00 mg/dL | HDL Max [1, 9]: 77.00 mg/dL | HDL Mean (SD) [1, 9]: 47.79 (14.77) mg/dL | HDL Median [1, 9]: 40.00 mg/dL | HDL Min [1, 9]: 29.00 mg/dL | HDL Max [1, 10]: 77.00 mg/dL | HDL Mean (SD) [1, 10]: 44.93 (13.59) mg/dL | HDL Median [1, 10]: 40.00 mg/dL | HDL Min [1, 10]: 29.00 mg/dL | HDL Max [1, 11]: 75.00 mg/dL | HDL Mean (SD) [1, 11]: 47.11 (14.59) mg/dL | HDL Median [1, 11]: 41.00 mg/dL | HDL Min [1, 11]: 30.00 mg/dL | HDL Max [1, 12]: 72.00 mg/dL | HDL Mean (SD) [1, 12]: 44.71 (13.00) mg/dL | HDL Median [1, 12]: 39.00 mg/dL | HDL Min [1, 12]: 32.00 mg/dL | HDL V2 to V6 % Change Max [1, 13]: 24.53% | HDL V2 to V6 % Change Mean (SD) [1, 13]: −3.43 (10.55) % | HDL V2 to V6 % Change Median [1, 13]: −5.80% | HDL V2 to V6 % Change Min [1, 13]: −22.7% | HDL V2 to V6 Change Max [1, 13]: 13.00 mg/dL | HDL V2 to V6 Change Mean (SD) [1, 13]: −1.72 (5.19) mg/dL | HDL V2 to V6 Change Median [1, 13]: -3.00 mg/dL | HDL V2 to V6 Change Min [1, 13]: -10.0 mg/dL | HDL V2 to V6 % Change Max [1, 14]: 24.53% | HDL V2 to V6 % Change Mean (SD) [1, 14]: −2.50 (11.26) % | HDL V2 to V6 % Change Median [1, 14]: −4.04% | HDL V2 to V6 % Change Min [1, 14]: −22.7% | HDL V2 to V6 Change Max [1, 14]: 13.00 mg/dL | HDL V2 to V6 Change Mean (SD) [1, 14]: −1.36 (5.64) mg/dL | HDL V2 to V6 Change Median [1, 14]: -2.00 mg/dL | HDL V2 to V6 Change Min [1, 14]: -10.0 mg/dL | Oxidized LDL Max [2, 15]: 87.00 | Oxidized LDL Mean (SD) [2, 15]: 51.64 (18.34) | Oxidized LDL Median [2, 15]: 49.00 | Oxidized LDL Min [2, 15]: 29.00 | Oxidized LDL Max ([2]; Group X 12 mg BID, V6 Week 12): 85.00 | Oxidized LDL Mean (SD) ([2]; Group X 12 mg BID, V6 Week 12): 51.18 (17.62) | Oxidized LDL Median ([2]; Group X 12 mg BID, V6 Week 12): 46.00 | Oxidized LDL Min ([2]; Group X 12 mg BID, V6 Week 12): 34.00 | Oxidized LDL V2 to V6 % Change Max ([2]; Group X 12 mg BID): 17.24% | Oxidized LDL V2 to V6 % Change Mean (SD) ([2]; Group X 12 mg BID): 0.41 (12.46) % | Oxidized LDL V2 to V6 % Change Median ([2]; Group X 12 mg BID): 2.86% | Oxidized LDL V2 to V6 % Change Min ([2]; Group X 12 mg BID): −26.0% | Oxidized LDL V2 to V6 Change Max ([2]; Group X 12 mg BID): 6.00 | Oxidized LDL V2 to V6 Change Mean (SD) ([2]; Group X 12 mg BID): −0.45 (5.65) | Oxidized LDL V2 to V6 Change Median ([2]; Group X 12 mg BID): 1.00 | Oxidized LDL V2 to V6 Change Min ([2]; Group X 12 mg BID): −13.0 | Oxidized LDL Max [2, 16]: 86.00 | Oxidized LDL Mean (SD) [2, 16]: 55.00 (17.80) | Oxidized LDL Median [2, 16]: 59.00 | Oxidized LDL Min [2, 16]: 24.00 | Oxidized LDL Max ([2]; Group Z 48 mg BID, V6 Week 12): 77.00 | Oxidized LDL Mean (SD) ([2]; Group Z 48 mg BID, V6 Week 12): 46.22 (15.21) | Oxidized LDL Median ([2]; Group Z 48 mg BID, V6 Week 12): 48.00 | Oxidized LDL Min ([2]; Group Z 48 mg BID, V6 Week 12): 25.00 | Oxidized LDL V2 to V6 % Change Max ([2]; Group Z 48 mg BID): 24.39% | Oxidized LDL V2 to V6 % Change Mean (SD) ([2]; Group Z 48 mg BID): −12.7 (19.64) % | Oxidized LDL V2 to V6 % Change Median ([2]; Group Z 48 mg BID): −10.1% | Oxidized LDL V2 to V6 % Change Min ([2]; Group Z 48 mg BID): −43.8% | Oxidized LDL V2 to V6 Change Max ([2]; Group Z 48 mg BID): 10.00 | Oxidized LDL V2 to V6 Change Mean (SD) ([2]; Group Z 48 mg BID): −8.22 (12.33) | Oxidized LDL V2 to V6 Change Median ([2]; Group Z 48 mg BID): −4.00 | Oxidized LDL V2 to V6 Change Min ([2]; Group Z 48 mg BID): −36.0
